The values that follow come from patent US4264572A, “X-ray contrast media” (Schering Aktiengesellschaft, priority 1978, dated 1981).

Series [1] in a line: coefficient of distribution in 1-butanol/tris-HCl buffer. Format: physicochemical. The following applies: pH 7.6, 1-butanol/tris-HCl buffer; meglumine salts. The text has this:
It is furthermore seen from this table that the interaction of the new compounds with proteins is much less than that of the known comparison substances.

Series [2] has as its system rat. Put plainly: general tolerance, LD50 i.v. in rat (7 days). Format: in vivo. The note with it: meglumine salts.
Series [3] deals with rat. Put plainly: neural tolerance, ED50 pericerebral in rat (24 hours). The note with it: meglumine salts.

Take `CNC(=O)c1c(I)c(C(=O)NCC(=O)Nc2c(I)c(C(=O)O)c(I)c(C(=O)NCCO)c2I)c(I)c(N(C)C(=O)COC)c1I` [A, 5-(3-N-methylmethoxyacetamido-5-methylcarbamoyl-2,4,6-triiodine-benzamidoacetamido)-N-(2-hydroxyethyl)-2,4,6-triiodine-isophthalamic acid]: the “Coefficient of Distribution” value in series [1] is listed as < 0.001. The “Tolerance LD50 i.v. (7 days)” value in the series on rat [2] is listed as ~ 10,000 mg I/kg of rat. The “Tolerance ED50 pericerebral (24 hours)” value in the series with rat [3] is on record as ~ 100 mg I/kg of rat. The “Protein Bond” value with proteins was 2.5.

For the compound `CNC(=O)c1c(I)c(C(=O)NCC(=O)Nc2c(I)c(C(=O)O)c(I)c(C(=O)NCCO)c2I)c(I)c(N(C)C(C)=O)c1I` [B, 5-(3-N-methyl-acetamido-2,4,6-triiodine-5-methylcarbamoyl-benzamido-acetamido)-N-(2-hydroxyethyl)-2,4,6-triiodine-isophthalamic acid], in series [1], the “Coefficient of Distribution” value came out at 0.033. Besides, in the series on rat [2], the “Tolerance LD50 i.v. (7 days)” value is listed as ~ 7,500 mg I/kg of rat. Also, in the series with rat [3], the “Tolerance ED50 pericerebral (24 hours)” value is reported as ~ 40 mg I/kg of rat. The “Protein Bond” value in the series on proteins was determined as 6.8.

On to `CNC(=O)c1c(I)c(NC(C)=O)c(I)c(C(=O)O)c1I` [C, 5-acetamido-2,4,6-triiodine-N-methyl-isophthalamic acid], for which, in series [1], the “Coefficient of Distribution” value is recorded as 0.017. Besides, the “Tolerance LD50 i.v. (7 days)” value in the series with rat [2] is listed as ~ 7,500 mg I/kg of rat. In the series on rat [3], the “Tolerance ED50 pericerebral (24 hours)” value is 60 mg I/kg of rat. Moreover, the “Protein Bond” value with proteins came out at 7.6.
